The values that follow come from patent publication US20250017940A1, “SELECTIVE PEPTIDOMIMETIC MODULATORS OF CAV2.2 (N-TYPE) VOLTAGE-GATED CALCIUM CHANNELS AND USES THEREOF” (New York University, priority 2023, published 2025).

Experiment [1] addresses T1, Cav2.2 (N-type) calcium channels (Rattus norvegicus, UniProt Q02294).
T1 construct: Recordings were obtained from acutely dissociated DRG neurons; endogenous in cells; host or cells: primary rat DRG neurons
Description: Whole-cell patch-clamp, isolated N-type Ca2+ currents in DRG neurons. Type of experiment: cell-based. As to conditions: for normalized peak N-type ICa2+ density: normalized to DMSO (1.00±0.07). The procedure:
Recordings were obtained from acutely dissociated DRG neurons as described earlier (Bellampalli et al., 2019). Patch-clamp recordings were performed at room temperature (22-24° C.). Currents were recorded using an EPC 10 Amplifier-HEKA (HEKA Elektronik, Ludwigshafen, Germany) linked to a computer with Patchmaster software. […]
For total calcium current (ICa^2+) recordings, the external solution consisted of the following (in mM): 110 N-methyl-D-glucamine, 10 BaCl2, 30 TEA-Cl, 10 HEPES, 10 glucose, and 0.001 TTX (pH 7.29 adjusted with TEA-OH, and mOsm/L=310). Patch pipettes were filled with an internal solution containing (in mM): 150 CsCl2, 10 HEPES, 5 Mg-ATP, and 5 BAPTA, (pH 7.2 adjusted with CsOH, and mOsm/L-305). Peak Ca^2+ current was acquired by applying 200-millisecond voltage steps from −70 to +60 mV in 10-mV increments from a holding potential of −90 mV to obtain the current-voltage (I-V) relation. To measure the different subtypes of Ca^2+ channels, DRGs were treated with a Cav inhibitor cocktail omitting the inhibitor specific to the subtype being tested (e.g., to measure Cav2.2 currents, ω-conotoxin GVIA is omitted): Nifedipine (10 μM, L-type), ω-Conotoxin-GVIA (500 nM, […]) (Feng, et al., 2001), SNX482 (200 nM, R-type) (Newcomb et al., 1998), ω-agatoxin (200 nM, P/Q-type) (Mintz et al., 1992), TTA-P2 (1 μM, T-type) (Choe et al., 2011).
Normalization of currents to each cell's capacitance (pF) was performed to allow for collection of current density data. For I-V curves, functions were fitted to data using a non-linear least squares analysis. I-V curves were fitted using double Boltzmann functions:
where x is the pre-pulse potential, V1/2 is the mid-point potential, and k is the corresponding slope factor for single Boltzmann functions. Double Boltzmann fits were used to describe the shape of the curve, not to imply the existence of separate channel populations. Numbers 1 and 2 simply indicate first and second mid-points; a along with g are fitting parameters.
Activation curves were obtained from the I-V curves by dividing the peak current at each depolarizing step by the driving force according to the equation: G=I/(Vmem-Erev), where I is the peak current, Vmem is the membrane potential and Erev is the reversal potential. The conductance (G) was normalized against the maximum conductance (Gmax). For total and the different subtypes of Ca^2+ currents, steady-state inactivation (SSI) curves were obtained by applying an H-infinity protocol that consisted of 1.5-seconds conditioning pre-pulses from −100 to +30 mV in 10-mV increments followed by a 20-millisecond test pulse to +10 mV. For Na^+ currents, SSI curves were obtained by applying an H-infinity protocol that consisted of 1-second conditioning pre-pulses from −120 to +10 mV in 10-mV increments followed by a 200-millisecond test pulse to +10 mV. Inactivation curves were obtained by dividing the peak current recorded at the test pulse by the maximum current (Imax). Activation and SSI curves were fitted with the Boltzmann equation.
On the technique in general: Patch clamp records ionic current or voltage across a cell membrane.

A further experiment addresses T2, Cav2.2 (Rattus norvegicus, UniProt Q02294).
T2 construct: Recordings were obtained from acutely dissociated DRG neurons; endogenous in cells; host or cells: primary rat DRG neurons
The experiment can be described thus: Immunocytochemistry / confocal microscopy of Cav2.2 membrane expression in DRG neurons. The format is cell-based. As to conditions: 20 μM overnight (DMSO: 3.59±0.42). The procedure:
Lumbar DRGs were dissected from 100 g female Sprague-Dawley rats using procedures as described previously (Gomez et al., 2022). DRGs were excised and placed in sterile DMEM (Cat #11965; Thermo Fisher Scientific, Waltham, MA). The ganglia were dissociated enzymatically with collagenase type I (5 mg/mL, Cat #LS004194; Worthington) and neutral protease (3.125 mg/mL, Cat #LS02104; Worthington, Lakewood, NJ) for 50 minutes at 37° C. under gentle agitation. The dissociated cells were then centrifuged (800 rpm for 5 min) and resuspended in DMEM containing 1% penicillin/streptomycin sulfate (Cat #15140, Life Technologies, Carlsbad, CA), 10% fetal bovine serum [HyClone]), and 30 ng/mL nerve growth factor (Cat #N2513, Millipore Sigma, St. Louis, MO). The cells were seeded on poly-D-lysine (Cat #P6407, Millipore Sigma, St. Louis, MO) and laminin (Cat #sc-29012, Santa Cruz Biotechnology, Dallas, TX) -coated 12- or 15-mm glass coverslips and incubated at 37° C. All cultures were used within 48 hours.
Immunocytochemistry was performed on DRG neurons incubated with vehicle (0.1% DMSO) or CBD3063 (20 μM) overnight. […] For all quantitative comparisons among cells under differing experimental conditions, camera gain and other relevant settings were kept constant. The freeware image analysis program Image J (http://rsb.info.nih.gov/ij/) was used for quantifying cellular fluorescence. […]

The mark [2] stands for this setting: 20 μM overnight, mean ± SEM (n cells).

T1 sequence (Q02294 whole entry): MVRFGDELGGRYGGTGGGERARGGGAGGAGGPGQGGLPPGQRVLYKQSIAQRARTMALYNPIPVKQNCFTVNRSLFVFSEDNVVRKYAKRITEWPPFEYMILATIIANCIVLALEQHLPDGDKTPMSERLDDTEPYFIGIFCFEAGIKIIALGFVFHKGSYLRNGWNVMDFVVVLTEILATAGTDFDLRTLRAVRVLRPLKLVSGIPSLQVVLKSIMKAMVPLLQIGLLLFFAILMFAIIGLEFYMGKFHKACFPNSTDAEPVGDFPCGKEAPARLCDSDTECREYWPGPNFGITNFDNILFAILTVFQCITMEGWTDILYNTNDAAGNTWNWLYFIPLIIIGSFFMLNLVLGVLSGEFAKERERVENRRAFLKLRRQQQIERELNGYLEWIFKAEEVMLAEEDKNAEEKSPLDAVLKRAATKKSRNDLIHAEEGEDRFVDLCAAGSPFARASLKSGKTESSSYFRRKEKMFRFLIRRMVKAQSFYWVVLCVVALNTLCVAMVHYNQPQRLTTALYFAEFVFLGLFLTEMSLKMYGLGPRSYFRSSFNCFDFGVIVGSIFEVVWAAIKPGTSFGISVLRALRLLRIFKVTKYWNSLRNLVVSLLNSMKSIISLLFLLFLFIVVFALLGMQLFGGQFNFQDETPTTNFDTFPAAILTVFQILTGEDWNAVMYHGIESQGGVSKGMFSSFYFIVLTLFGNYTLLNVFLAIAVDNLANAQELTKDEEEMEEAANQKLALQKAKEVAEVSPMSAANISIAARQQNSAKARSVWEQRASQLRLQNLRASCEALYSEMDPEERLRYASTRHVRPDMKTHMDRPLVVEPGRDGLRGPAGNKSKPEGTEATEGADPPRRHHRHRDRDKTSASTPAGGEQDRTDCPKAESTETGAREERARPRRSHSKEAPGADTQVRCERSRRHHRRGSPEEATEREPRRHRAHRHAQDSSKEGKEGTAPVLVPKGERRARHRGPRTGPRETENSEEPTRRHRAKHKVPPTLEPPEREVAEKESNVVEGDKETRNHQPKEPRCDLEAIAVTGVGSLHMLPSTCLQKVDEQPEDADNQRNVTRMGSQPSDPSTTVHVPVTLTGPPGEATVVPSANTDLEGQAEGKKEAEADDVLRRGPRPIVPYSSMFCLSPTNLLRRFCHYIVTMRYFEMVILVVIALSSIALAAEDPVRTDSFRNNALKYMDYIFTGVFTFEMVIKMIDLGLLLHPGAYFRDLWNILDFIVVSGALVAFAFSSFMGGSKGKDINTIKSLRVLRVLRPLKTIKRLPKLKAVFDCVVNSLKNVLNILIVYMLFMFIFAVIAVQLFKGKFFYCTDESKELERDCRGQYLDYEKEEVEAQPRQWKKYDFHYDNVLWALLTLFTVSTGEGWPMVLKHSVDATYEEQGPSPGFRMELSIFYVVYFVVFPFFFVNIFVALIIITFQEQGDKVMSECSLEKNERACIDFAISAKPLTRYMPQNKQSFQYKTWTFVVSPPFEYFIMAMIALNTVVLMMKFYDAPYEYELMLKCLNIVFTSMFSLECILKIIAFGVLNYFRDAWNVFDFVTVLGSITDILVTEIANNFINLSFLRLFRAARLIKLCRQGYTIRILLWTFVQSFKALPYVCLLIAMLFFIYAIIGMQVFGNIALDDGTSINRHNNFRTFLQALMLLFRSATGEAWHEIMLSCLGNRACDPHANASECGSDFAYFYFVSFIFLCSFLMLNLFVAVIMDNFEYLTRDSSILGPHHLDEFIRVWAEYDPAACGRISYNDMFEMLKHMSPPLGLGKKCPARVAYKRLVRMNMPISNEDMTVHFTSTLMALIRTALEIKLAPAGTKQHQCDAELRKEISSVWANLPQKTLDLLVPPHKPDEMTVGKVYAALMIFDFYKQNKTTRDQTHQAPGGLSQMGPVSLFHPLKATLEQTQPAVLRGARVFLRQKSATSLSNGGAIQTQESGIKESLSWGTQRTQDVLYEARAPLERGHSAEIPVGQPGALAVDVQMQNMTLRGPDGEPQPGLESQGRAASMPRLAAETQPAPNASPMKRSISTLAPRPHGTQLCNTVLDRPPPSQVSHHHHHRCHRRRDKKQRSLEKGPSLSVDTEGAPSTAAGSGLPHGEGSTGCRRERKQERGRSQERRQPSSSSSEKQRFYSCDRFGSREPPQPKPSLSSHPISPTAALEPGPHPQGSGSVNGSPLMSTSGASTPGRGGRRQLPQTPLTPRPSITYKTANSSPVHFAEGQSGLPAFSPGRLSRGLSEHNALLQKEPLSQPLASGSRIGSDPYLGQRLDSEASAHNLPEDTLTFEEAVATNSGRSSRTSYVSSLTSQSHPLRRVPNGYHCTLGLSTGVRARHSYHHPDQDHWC
T1 sequence (P54290 25-1091 partner): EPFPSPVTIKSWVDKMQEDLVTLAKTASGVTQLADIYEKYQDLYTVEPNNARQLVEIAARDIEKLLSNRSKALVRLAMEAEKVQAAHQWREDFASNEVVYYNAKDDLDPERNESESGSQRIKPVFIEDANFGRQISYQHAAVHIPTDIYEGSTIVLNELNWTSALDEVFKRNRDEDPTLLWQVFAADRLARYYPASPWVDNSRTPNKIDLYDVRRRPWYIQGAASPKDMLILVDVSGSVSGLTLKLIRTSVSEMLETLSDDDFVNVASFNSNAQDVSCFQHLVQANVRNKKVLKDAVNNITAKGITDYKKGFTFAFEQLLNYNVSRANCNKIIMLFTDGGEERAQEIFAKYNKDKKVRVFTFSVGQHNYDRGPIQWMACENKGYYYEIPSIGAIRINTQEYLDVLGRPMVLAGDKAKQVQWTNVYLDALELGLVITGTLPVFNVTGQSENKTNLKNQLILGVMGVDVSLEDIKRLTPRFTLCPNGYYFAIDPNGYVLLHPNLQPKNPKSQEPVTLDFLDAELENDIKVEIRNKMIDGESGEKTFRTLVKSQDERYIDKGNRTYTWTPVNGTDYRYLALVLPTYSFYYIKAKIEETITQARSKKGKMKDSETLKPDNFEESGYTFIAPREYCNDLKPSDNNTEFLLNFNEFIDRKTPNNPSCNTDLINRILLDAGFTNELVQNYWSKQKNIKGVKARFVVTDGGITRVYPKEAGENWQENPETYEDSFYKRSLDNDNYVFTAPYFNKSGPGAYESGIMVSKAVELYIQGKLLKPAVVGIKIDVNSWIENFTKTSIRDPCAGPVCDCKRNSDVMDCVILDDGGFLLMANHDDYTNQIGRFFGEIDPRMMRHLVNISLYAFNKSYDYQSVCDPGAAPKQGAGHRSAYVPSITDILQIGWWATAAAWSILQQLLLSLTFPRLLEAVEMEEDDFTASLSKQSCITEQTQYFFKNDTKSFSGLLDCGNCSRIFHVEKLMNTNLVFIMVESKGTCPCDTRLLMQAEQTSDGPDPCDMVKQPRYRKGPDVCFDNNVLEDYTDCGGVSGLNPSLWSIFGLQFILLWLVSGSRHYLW
T1 sequence (P54287 whole entry partner): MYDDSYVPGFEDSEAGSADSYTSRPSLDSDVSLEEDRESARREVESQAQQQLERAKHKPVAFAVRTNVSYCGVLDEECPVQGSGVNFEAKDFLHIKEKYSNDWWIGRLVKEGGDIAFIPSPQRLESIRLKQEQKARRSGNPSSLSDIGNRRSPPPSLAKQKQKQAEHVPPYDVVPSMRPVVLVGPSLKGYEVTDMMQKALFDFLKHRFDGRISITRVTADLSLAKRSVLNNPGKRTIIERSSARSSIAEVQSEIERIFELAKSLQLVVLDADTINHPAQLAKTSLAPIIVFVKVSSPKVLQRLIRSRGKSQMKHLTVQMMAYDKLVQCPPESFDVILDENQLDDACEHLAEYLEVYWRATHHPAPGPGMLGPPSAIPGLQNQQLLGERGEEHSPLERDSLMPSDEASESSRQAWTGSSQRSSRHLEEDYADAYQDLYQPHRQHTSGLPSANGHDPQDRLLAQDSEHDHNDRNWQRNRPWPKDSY
T2 sequence (Q02294 whole entry): as the sequence (Q02294 whole entry) above
T2 sequence (P54290 25-1091 partner): as the sequence (P54290 25-1091 partner) above
T2 sequence (P54287 whole entry partner): as the sequence (P54287 whole entry partner) above

In the case of `CC(=O)N[C@@H]1CCCN(C(=O)NCCCNc2ccccn2)C1` [CBD3063, (3R)-3-acetamido-N-[3-(pyridin-2-ylamino)propyl]piperidine-1-carboxamide], the “normalized peak N-type ICa2+ density” value in experiment [1] (2 μM overnight) was found to be 0.93±1.07. In experiment [1] (20 μM overnight, +10 mV (DMSO: −104.00±11.32)), the “peak N-type calcium current density” value is recorded as −69.18±6.54 pA/pF. Besides, the “decrease of N-type currents at peak current density” value in experiment [1] (20 μM overnight, +10 mV, vs control group) is roughly 33.5%. Also, in experiment [1] (setting [2]), the “N-type Ca2+ currents, activation V1/2” value is on record as −5.275 ± 0.669 (17) mV; the “N-type Ca2+ currents, activation k (slope factor)” value was 5.616 ± 0.566 (17); the “N-type Ca2+ currents, inactivation V1/2” value was −31.129 ± 2.169 (17) mV; the “N-type Ca2+ currents, inactivation k (slope factor)” value is given as −17.247 ± 2.104 (17). In addition, in experiment [1] (20 μM overnight), the “normalized peak N-type ICa2+ density” value amounted to 0.74±0.04. Also, the “normalized peak N-type ICa2+ density” value in experiment [1] (50 μM overnight) is reported as 0.65±0.06. Besides, at Cav2.2, the Cav2.2 membrane/cytosol ratio was determined as 1.64±0.10.
